{
  "source": "patent US20050163707A1",
  "about": "“Cancer treatment” (priority 2002, published 2005)",
  "key": {"[1]": {"tested_on": "HT1376 bladder tumour xenografts", "test": "Tumour volume tripling time of HT1376 xenografts in nude mice after 90Y-hHMFG1 radioimmunotherapy and/or chemotherapy", "type": "in vivo, mouse (human tumour xenograft)", "details": "for T-C value: Cisplatin combined with 1.2 MBq radioimmunotherapy", "protocol": "(§1) The human bladder tumour cell line, HT1376, and the human colon tumour cell line HT29 expressing polymorphic epithelial mucin (PEM) were cultured in RPMI 1640 tissue culture medium containing 100 U·ml^−1 penicillin and 100 μg·ml^−1 streptomycin, supplemented with 10% foetal calf serum in a humidified atmosphere of 5% carbon dioxide in air. HT1376 is a human bladder carcinoma cell line obtained from the European Collection of Animal Cell Cultures (ECACC no. 87032402). HT29 is human colon carcinoma cell line obtained from European Collection of Animal Cell Cultures (ECACC no. 91072201).\n(§2) The fully humanised version of the anti-PEM antibody, HMFG1, was produced by Lonza, Slough, UK. This humanised HMFG1 (hHMFG1) was conjugated with the chelating agent […] by BioInvent, Sweden.\n(§3) CITC-DTPA-conjugated hHMFG1 was radiolabelled with ^90Y in acetate buffer (pH 5.5) at room temperature for 30 minutes. Disodium EDTA was added to the reaction mixture such that the final EDTA concentration was 5 mM and left to stand at room temperature for approximately 10 min. The radiolabelled protein was then purified by size exclusion chromatography and the protein-containing fractions pooled.\n(§4) Female MF1 athymic nude (nu/nu) mice were used throughout these studies. The mice were bred at the Biological Research Facility of St. George's Hospital Medical School and were housed in sterile filter cages and maintained on irradiated diet and sterile water. Tumours were established by subcutaneous injection of 5×10^6 cells in the right flank.\n(§5) Humanised HMFG1 anti-PEM antibody (previously conjugated with the chelating agent CITC-DTPA) was radiolabelled with yttrium-90 (^90Y) to a specific activity of approximately 1-2 MBq per 10 μg. Mice received approximately 10 μg of protein by intravenous injection.\n(§6) For combination therapy, the drug and radioimmunotherapy (RIT) were given by sequential injections into the two lateral tail veins. The drug was given either 24 h before or 24 h after the RIT. In the case of Cisplatin, this was also given at the same time as the RIT. Control mice were untreated.\n(§7) Approximately three weeks after tumour inoculation, when the tumours were around 0.2 cm^3 in volume (7-8 mm in diameter), mice were divided into treatment groups of 7-8 mice each. […] Mice were injected with various doses of ^90Y-labelled hHMFG1 radioimmunotherapy (10-20 μg, 1.2-2.0 MBq) either alone or in combination with the test drug given either 24 h before or 24 h after radioimmunotherapy, or with chemotherapy or chemotherapy vehicle alone. One group of mice was left untreated as a control on some occasions when experimental animals were treated. Tumour diameters (d1, d2 and d3) were measured twice weekly in three orthogonal directions using a vernier calliper and the tumour volume (v) calculated according to the formula for an ellipsoid: [formula]\n(§8) Relative tumour volume (the volume of each tumour divided by the tumour volume on the day of treatment) was calculated to minimise the effect of variation in treatment volume of the individual tumours. The end-point was defined as time for the relative tumour volume to reach 3.\n(§9) The Wilcoxon rank sum test was used to compare the groups of mice receiving the various treatment protocols. A p-value <0.05 was considered to be significant."}, "[2]": {"tested_on": "mouse model of breast cancer", "details": "cited from earlier work"}, "[3]": {"tested_on": "HT29 colon tumour xenografts", "test": "Tumour volume tripling time of HT29 xenografts in nude mice after 90Y-hHMFG1 radioimmunotherapy and/or chemotherapy", "type": "in vivo, mouse (human tumour xenograft)", "details": "for Median volume tripling time / T-C (treated minus control tripling time): 90Y-hHMFG1 1.4 MBq, combinations 24 h apart; for Most effective treatment schedule / Effect of drug combined with radioimmunotherapy (in words): Table 2; for Most effective treatment schedule: drug combined with 90Y-hHMFG1 radioimmunotherapy", "protocol": "as §1, §2, §3, §4, §5, §6, §7, §8, §9"}, "[4]": {"details": "Table 1, group with Control (25-26) 19.0, each drug 10 mg/kg i.v. alone"}, "[5]": {"details": "Table 1, group with Control (18-19) 17.9, Taxotere 10 mg/kg i.v., 90Y-hHMFG1 1.2 MBq i.v., combination of both"}, "[6]": {"details": "Table 2, HT1376 Taxotere, Observer 1, control 21.9, 90Y-hHMFG1 1.2 MBq, Taxotere 10 mg/kg, combinations 24 h apart"}, "[7]": {"details": "Table 2, HT29 cyclophosphamide, Observer 1, control 10.2, cyclo 200 mg/kg"}, "[8]": {"details": "Table 2, HT29 cyclophosphamide, Observer 2, control 10.7, cyclo 200 mg/kg"}, "[9]": {"details": "drug given after the 90Y-hHMFG1 radioimmunotherapy"}, "[10]": {"details": "Table 2, HT29 vincristine, Observer 1, control 10.2, vincristine 2 mg/kg"}, "[11]": {"details": "Table 2, HT29 gemcitabine, Observer 1, control 8.8, gemcitabine 240 mg/kg"}, "[12]": {"details": "Table 2, HT29 gemcitabine, Observer 2, control 9.5, gemcitabine 240 mg/kg"}, "[13]": {"details": "Table 2, HT1376 Cisplatin, Observer 1, control 21.9, 90Y-hHMFG1 1.2 MBq, Cisplatin 10 mg/kg, drug at -24 h, 0 h or +24 h relative to RIT"}, "[14]": {"details": "Table 2, HT1376 Cisplatin, Observer 1, control 21.9, 90Y-hHMFG1 1.4 MBq, Cisplatin 2 mg/kg, combination at 0 h"}, "[15]": {"details": "Table 2, HT1376 Cisplatin, Observer 1, control 21.9, 90Y-hHMFG1 1.4 MBq, Cisplatin 10 mg/kg, combination drug -24 h"}},
  "data": [
    {"smiles": "CC(=O)O[C@H]1C(=O)[C@@]2(C)[C@H]([C@H](OC(=O)c3ccccc3)[C@]3(O)C[C@H](OC(=O)[C@H](O)[C@@H](NC(=O)c4ccccc4)c4ccccc4)C(C)=C1C3(C)C)[C@]1(OC(C)=O)CO[C@@H]1C[C@@H]2O", "note": "[Taxol ®, paclitaxel]", "values": [
      {"measurement": "Median volume tripling time", "setting": "[1]; [4]", "result": 30.2, "unit": "days"},
      {"measurement": "T-C (treated minus control tripling time)", "setting": "[1]; [4]", "result": 11.2, "unit": "days"},
      {"measurement": "Optimum time for Taxol administration after 90Y-ChL6", "setting": "[2]", "result": "6 to 24", "unit": "h"}
    ]},
    {"smiles": "CC(=O)O[C@@]12CO[C@@H]1C[C@H](O)[C@@]1(C)C(=O)[C@H](O)C3=C(C)[C@@H](OC(=O)[C@H](O)[C@@H](NC(=O)OC(C)(C)C)c4ccccc4)C[C@@](O)([C@@H](OC(=O)c4ccccc4)[C@H]21)C3(C)C", "note": "[Taxotere ®, Docetaxel]", "values": [
      {"measurement": "Median volume tripling time", "setting": "[1]; [5]", "result": 43.8, "unit": "days"},
      {"measurement": "T-C (treated minus control tripling time)", "setting": "[1]; [5]", "result": 25.9, "unit": "days"},
      {"measurement": "Median volume tripling time", "setting": "[1]; [4]", "result": 41.2, "unit": "days"},
      {"measurement": "T-C (treated minus control tripling time)", "setting": "[1]; [4]", "result": 22.2, "unit": "days"},
      {"measurement": "Median volume tripling time", "setting": "[1]; [6]", "result": 43.5, "unit": "days"},
      {"measurement": "T-C (treated minus control tripling time)", "setting": "[1]; [6]", "result": 21.6, "unit": "days"}
    ]},
    {"smiles": "O=P1(N(CCCl)CCCl)NCCCO1", "note": "(stereo not shown) [cyclo, Cyclophosphamide]", "values": [
      {"measurement": "Median volume tripling time", "setting": "[3]; [7]", "result": 15.5, "unit": "days"},
      {"measurement": "T-C (treated minus control tripling time)", "setting": "[3]; [7]", "result": 5.3, "unit": "days"},
      {"measurement": "Median volume tripling time", "setting": "[3]; [8]", "result": 14.1, "unit": "days"},
      {"measurement": "T-C (treated minus control tripling time)", "setting": "[3]; [8]", "result": 3.4, "unit": "days"},
      {"measurement": "Most effective treatment schedule", "setting": "[3]", "result": "most effective when given after the radioimmunotherapy"},
      {"measurement": "Effect of drug combined with radioimmunotherapy (in words)", "setting": "[3]; [9]", "result": "synergistic effect over the mere additive effect"}
    ]},
    {"smiles": "COc1cccc2c1C(=O)c1c(O)c3c(c(O)c1C2=O)C[C@@](O)(C(=O)CO)C[C@@H]3O[C@H]1C[C@H](N)[C@H](O)[C@H](C)O1", "note": "[Dox]", "values": [
      {"measurement": "T-C (treated minus control tripling time)", "setting": "[1]; [4]", "result": 33.9, "unit": "days"},
      {"measurement": "Median volume tripling time", "setting": "[1]; in vivo", "result": 52.9, "unit": "days"}
    ]},
    {"smiles": "CC[C@]1(O)C[C@H]2CN(CCc3c([nH]c4ccccc34)[C@@](C(=O)OC)(c3cc4c(cc3OC)N(C=O)[C@H]3[C@@](O)(C(=O)OC)[C@H](OC(C)=O)[C@]5(CC)C=CCN6CC[C@]43[C@@H]65)C2)C1", "note": "[vincristine, Vincristine]", "values": [
      {"measurement": "Median volume tripling time", "setting": "[3]; [10]", "result": 13.4, "unit": "days"},
      {"measurement": "T-C (treated minus control tripling time)", "setting": "[3]; [10]", "result": 3.2, "unit": "days"},
      {"measurement": "T-C (treated minus control tripling time)", "setting": "[3]; Table 2, HT29 vincristine, Observer 2, control 10.7, vincristine 2 mg/kg", "result": 4.0, "unit": "days"},
      {"measurement": "Effect of drug combined with radioimmunotherapy (in words)", "setting": "[3]; drug administered before the 90Y-hHMFG1 radioimmunotherapy", "result": "also effective when administered before the radioimmunotherapy although to a slightly lesser extent"},
      {"measurement": "Most effective treatment schedule", "setting": "[3]", "result": "most effective when given after the radioimmunotherapy"},
      {"measurement": "Effect of drug combined with radioimmunotherapy (in words)", "setting": "[3]; [9]", "result": "synergistic effect over the mere additive effect"}
    ]},
    {"smiles": "Nc1ccn([C@@H]2O[C@H](CO)[C@@H](O)C2(F)F)c(=O)n1", "note": "[gemcitabine, Gemcitabine]", "values": [
      {"measurement": "Median volume tripling time", "setting": "[3]; [11]", "result": 15.4, "unit": "days"},
      {"measurement": "T-C (treated minus control tripling time)", "setting": "[3]; [11]", "result": 6.6, "unit": "days"},
      {"measurement": "Median volume tripling time", "setting": "[3]; [12]", "result": 12.8, "unit": "days"},
      {"measurement": "T-C (treated minus control tripling time)", "setting": "[3]; [12]", "result": 3.3, "unit": "days"},
      {"measurement": "Effect of drug combined with radioimmunotherapy (in words)", "setting": "[3]; drug and 90Y-hHMFG1 radioimmunotherapy given in combination", "result": "overall increase in T-C values"}
    ]},
    {"smiles": "N.N.[Cl][Pt][Cl]", "note": "[Cisplatin]", "values": [
      {"measurement": "Median volume tripling time", "setting": "[1]; [13]", "result": 28.8, "unit": "days"},
      {"measurement": "T-C (treated minus control tripling time)", "setting": "[1]; [13]", "result": 6.9, "unit": "days"},
      {"measurement": "Median volume tripling time", "setting": "[1]; [14]", "result": 28.9, "unit": "days"},
      {"measurement": "T-C (treated minus control tripling time)", "setting": "[1]; [14]", "result": 7.0, "unit": "days"},
      {"measurement": "Median volume tripling time", "setting": "[1]; [15]", "result": 28.8, "unit": "days"},
      {"measurement": "T-C (treated minus control tripling time)", "setting": "[1]; [15]", "result": 6.9, "unit": "days"},
      {"measurement": "T-C, combined addition of the drugs administered individually", "setting": "[1]; Table 2, 1.2 MBq 90Y-hHMFG1 alone plus Cisplatin 10 mg/kg alone", "result": 7.9},
      {"measurement": "T-C value", "setting": "[1]; Table 2, first dosage regime (drug -24 h per Table 2)", "result": 44},
      {"measurement": "T-C value", "setting": "[1]; Table 2, second dosage regime (0 h per Table 2)", "result": 36.5},
      {"measurement": "T-C value", "setting": "[1]; Table 2, third dosage regime (drug +24 h per Table 2)", "result": 15.5},
      {"measurement": "Most effective treatment schedule", "setting": "[1]; Table 2, drug combined with 90Y-hHMFG1 radioimmunotherapy", "result": "administer the drug 24 hours before the radioimuunotherapy"},
      {"measurement": "Effect of drug combined with radioimmunotherapy (in words)", "setting": "[1]; Table 2, with 90Y-hHMFG1, no matter the order of administering", "result": "synergistic effect"}
    ]}
  ]
}
